This is an account of results in patent US20260250312A1, “ANTIBACTERIAL COMPOUNDS ELIMINATING DORMANT BACTERIAL CELLS” (UNIVERSITÉ D'AIX-MARSEILLE, priority 2022, published 2026).

SMILES strings stand for the structures. “And” between values parts separate entries of the source, which are not always exact repeats. Identical values can stand only once.

For assay [1], the system named is Enterococcus faecalis (ATCC29212). Briefly: Microdilution MIC assay (CLSI-based), E. faecalis. The format is cell-based. The conditions noted are these: Enterococcus faecalis, ATCC29212, 20 h, 20 hours incubation at 35-37° C., MHB; read-out: Minimum inhibitory concentration E. faecalis ATCC29212. The protocol:
(§1) The antibacterial activity of compounds was measured using a standard microdilution assay based on the Clinical and Laboratory Standards Institute (CLSI) guidelines. This method was slightly modified. Indeed, assay volumes were increased to 200 μL to improve reproducibility. The chemical compounds to be tested were in the form of salts for biological testing.
(§2) Bacteria tested: Antibacterial activities of the compounds were tested on Staphylococcus aureus (ATCC25923), Enterococcus faecalis (ATCC29212), Escherichia coli ([…]) and Pseudomonas aeruginosa (ATCC27853).
(§3) Preparation of the Preculture: Mueller Hinton Agar plates were inoculated with frozen biological strain in order to obtain separate colonies and the plates were incubated during 24 h at 35-37° C. 3 colonies of similar aspect were picked out, resuspended in 5 mL of fresh Mueller Hinton broth 1× (MHB) and incubated with shaking (160 rpm) at 35-37° C. overnight.
(§4) 0.1 mL of bacteria in exponential phase were suspended in 9.9 mL of MHB (1:100 dilution). 0.1 mL of the 1:100 dilution were dispensed into the wells of microplates containing 0.1 ml of serial compounds dilutions to yield ca. 5×10^5 CFU/mL. In parallel, the stocks solutions of chemical compounds were first diluted in appropriate solvent to a final concentration of 5 mg/mL. 8 μL were dispended into the first wells of the microplates containing 0.1 ml of sterile broth and a 0.5 cascade dilution was performed in MHB from 0.2 mg/mL. One control was made for each strain tested. […] Tests were performed in triplicate.
(§5) Reading of the Results: After incubation, the filter was replaced with a transparent film, and an optical density reading was then taken in an iEMS plate spectrophotometer at 620 nm. Calculation of the minimum inhibitory concentration (MIC) was performed.

Assay [2] concerns Staphylococcus aureus (ATCC25923). Briefly: Microdilution MIC assay (CLSI-based), S. aureus. The note with it: Staphylococcus aureus, ATCC25923, 20 h, 20 hours incubation at 35-37° C., MHB; read-out: Minimum inhibitory concentration S. aureus ATCC25923. The format is cell-based. The protocol:
as §1, §2, §3, §4, §5
For orientation: Dilution methods test growth across graded concentrations, often in twofold steps.

In another assay the test system is CHO-K1 cells. Briefly: WST1 cytotoxicity test. The format is cell-based, Chinese hamster. The note with it: Cricetulus griseus, CHO-K1, 24 h, WST1, 24 hours at 37° C.; read-out: IC50 CHO. From the text:
Cytotoxicity: The test WST1 was used to measure the cytotoxic activity of the compounds of the invention. The test WST1 is a colorimetric test allowing to measure the viability and the degree of cell proliferation. It is based on cleavage of the colorless tetrazolium salts WST-1 (4—[3-(4-iodophenyl)-2-(4-nitrophenyl)-2H-5-tetrazolio]-1,3-benzene disulfonate) with mitochondrial dehydrogenases to the yellow-colored formazan derivative, which may be quantified by spectrophotometry at 420-480 nm. The WST1 test was performed on Chinese hamster ovary (CHO) cells. The CHO-K1 cells (ATCC, USA) were kept in culture in McCoy's 5A medium supplemented with 10% fetal calf serum, 2 mM of L-glutamine and a mixture of penicillin-streptomycin (100 U/ml: 10 μg/mL). The culture was incubated at 37° C. under an atmosphere enriched in CO2 (5%), and subcultured every two days. The cells were transferred into 96-well plates (25,000 cells/mL) in whole McCoy's 5A medium, and maintained for 24 hours at 37° C. under a humid atmosphere enriched in CO2 (5%). Increasing concentrations of tested compounds were added to the wells, each compound was tested in replicates and 8 growth controls containing the cells in the medium alone were included in each series of tests. After 24 hours at 37° C. (5% CO2), the culture medium was removed, the cells were rinsed in phosphate buffer (PBS) and 50 μL of PBS containing 10% of reagent WST1 were added to each well. After 20 minutes of incubation at 37° C., the results were read by spectrophotometry at 450 nm. The results are expressed in dose-response relationships, modeled by nonlinear regression analysis using the TableCurve software.
Cytotoxicity: The same WST1 test as described in Example 2 above was used.

Assay [3] concerns Escherichia coli (ATCC28922). Briefly: Microdilution MIC assay (CLSI-based), E. coli. The conditions noted are these: Escherichia coli, ATCC28922, 20 h, 20 hours incubation at 35-37° C., MHB; read-out: Minimum inhibitory concentration E. coli ATCC28922. The format is cell-based. The protocol:
as §1, §2, §3, §4, §5

The subject of assay [4] is Pseudomonas aeruginosa (ATCC27853). The assay is described as follows: Microdilution MIC assay (CLSI-based), P. aeruginosa. The format is cell-based. The conditions noted are these: Pseudomonas aeruginosa, ATCC27853, 20 h, 20 hours incubation at 35-37° C., MHB; read-out: Minimum inhibitory concentration P. aeruginosa ATCC27853. The protocol:
as §1, §2, §3, §4, §5

`COC(=O)[C@H](NC(=O)CC[C@@H](C)[C@H]1CCC2C3C(CC[C@@]21C)[C@@]1(C)CC[C@H](NCCCCCCN)C[C@H]1C[C@H]3O)C(C)C` (stereo partly drawn) [Compound S023, methyl ((4R)-4-((3S,5S,7R,10S,13R,17R)-3-((6-aminohexyl)amino)-7-hydroxy-10,13-dimethylhexadecahydro-1H-cyclopenta[a]phenanthren-17-yl)pentanoyl)-D-valinate]: the MIC in assay [1] is 100 µM and 64 µg/mL; in assay [2], 50 µM and 32 µg/mL; in assay [3] it was 100 µM and 64 µg/mL; in assay [4], > 200 µM and > 120 µg/mL. Besides, in the assay with CHO-K1 cells, the IC50 is 48.5 µM and 29.3 µg/mL.

Regarding `COC(=O)[C@H](C)NC(=O)CC[C@@H](C)[C@H]1CCC2C3C(CC[C@@]21C)[C@@]1(C)CC[C@H](NCCCNCCCCNCCCN)C[C@H]1C[C@H]3O` (stereo partly drawn) [Compound S038, methyl ((4R)-4-((3S,5S,7R,10S,13R,17R)-3-((3-((4-((3-aminopropyl)amino)butyl)amino)propyl)amino)-7-hydroxy-10,13-dimethylhexadecahydro-1H-cyclopenta[a]phenanthren-17-yl)pentanoyl)-L-alaninate], the MIC in assay [1] is 6.25 µM and 4 µg/mL; in assay [2] it was 3.13 µM and 2 µg/mL; in assay [3], 6.25 µM and 4 µg/mL; in assay [4] it was 12.5 µM and 8 µg/mL. Further, in the assay with CHO-K1 cells, the IC50 is 45 µM and 29.8 µg/mL.

As to `COC(=O)[C@H](NC(=O)CC[C@@H](C)[C@H]1CCC2C3C(CC[C@@]21C)[C@@]1(C)CC[C@H](NCCCCCCCCCCN)C[C@H]1C[C@H]3O)C(C)C` (stereo partly drawn) [Compound S009, methyl ((4R)-4-((3S,5S,7R,10S,13R,17R)-3-((10-aminodecyl)amino)-7-hydroxy-10,13-dimethylhexadecahydro-1H-cyclopenta[a]phenanthren-17-yl)pentanoyl)-D-valinate], the MIC was 25 µM and 16 µg/mL in assay [1]; 25 µM and 16 µg/mL in assay [2]; 200 µM and 128 µg/mL in assay [3]; > 200 µM and > 128 µg/mL in assay [4]. The IC50 in the assay on CHO-K1 cells is 20 µM and 13.2 µg/mL.

Consider `COC(=O)CNC(=O)CC[C@@H](C)[C@H]1CCC2C3C(C[C@H](O)[C@@]21C)[C@@]1(C)CC[C@H](NCCCNCCCCNCCCN)C[C@H]1C[C@H]3O` (stereo partly drawn) [Compound S051, methyl ((4R)-4-((3S,5S,7R,10S,12S,13R,17R)-3-((3-((4-((3-aminopropyl)amino)butyl)amino)propyl)amino)-7,12-dihydroxy-10,13-dimethylhexadecahydro-1H-cyclopenta[a]phenanthren-17-yl)pentanoyl)glycinate], for which the MIC in assay [1] was 50 µM and 32 µg/mL; in assay [2] it was 6.25 µM and 4 µg/mL; in assay [3], 25 µM and 16 µg/mL; in assay [4], 25 µM and 16 µg/mL. Further, in the assay on CHO-K1 cells, the IC50 is 33.3 µM and 22.1 µg/mL.

Regarding `COC(=O)[C@H](Cc1ccc(O)cc1)NC(=O)CC[C@@H](C)[C@H]1CCC2C3C(CC[C@@]21C)[C@@]1(C)CC[C@H](NCCCNCCCN)C[C@H]1C[C@H]3O` (stereo partly drawn) [Compound S040, methyl ((4R)-4-((3S,5S,7R,10S,13R,17R)-3-((3-((3-aminopropyl)amino)propyl)amino)-7-hydroxy-10,13-dimethylhexadecahydro-1H-cyclopenta[a]phenanthren-17-yl)pentanoyl)-L-tyrosinate], the MIC in assay [1] was 25 µM and 16 µg/mL; in assay [2], 25 µM and 16 µg/mL; in assay [3] it was 50 µM and 32 µg/mL; in assay [4] it was 50 µM and 32 µg/mL. For the same compound, the half-maximal inhibitory concentration (IC50) in the assay with CHO-K1 cells was 155 µM and 106 µg/mL.

Consider `COC(=O)[C@H](NC(=O)CC[C@@H](C)[C@H]1CCC2C3C(CC[C@@]21C)[C@@]1(C)CC[C@H](NCCN)C[C@H]1C[C@H]3O)C(C)C` (stereo partly drawn) [Compound S008, methyl ((4R)-4-((3S,5S,7R,10S,13R,17R)-3-((2-aminoethyl)amino)-7-hydroxy-10,13-dimethylhexadecahydro-1H-cyclopenta[a]phenanthren-17-yl)pentanoyl)-D-valinate], for which the MIC is 25 µM and 16 µg/mL in assay [1]; 25 µM and 16 µg/mL in assay [2]; 25 µM and 16 µg/mL in assay [3]; 200 µM and 128 µg/mL in assay [4]. Besides, the IC50 in the assay with CHO-K1 cells is 86 µM and 47.1 µg/mL.

On to `COC(=O)[C@H](NC(=O)CC[C@@H](C)[C@H]1CCC2C3C(CC[C@@]21C)[C@@]1(C)CC[C@H](NCCCNCCCNCCCN)C[C@H]1C[C@H]3O)C(C)C` (stereo partly drawn) [Compound S011, methyl ((4R)-4-((3S,5S,7R,10S,13R,17R)-3-((3-((3-((3-aminopropyl)amino)propyl)amino)propyl)amino)-7-hydroxy-10,13-dimethylhexadecahydro-1H-cyclopenta[a]phenanthren-17-yl)pentanoyl)-D-valinate], for which the MIC in assay [1] was 25 µM and 16 µg/mL; in assay [2], 12.5 µM and 8 µg/mL; in assay [3], 12.5 µM and 8 µg/mL; in assay [4] it was 25 µM and 16 µg/mL. Moreover, the IC50 in the assay on CHO-K1 cells was 1.17 µM and 0.79 µg/mL.

With `COC(=O)[C@H](NC(=O)CC[C@@H](C)[C@H]1CCC2C3CC[C@@H]4C[C@@H](NCCCN(CCCN)CCCN)CC[C@]4(C)C3C[C@H](O)[C@@]21C)C(C)C` (stereo partly drawn) [Compound S054, methyl ((4R)-4-((3S,5R,10S,12S,13R,17R)-3-((3-(bis(3-aminopropyl)amino)propyl)amino)-12-hydroxy-10,13-dimethylhexadecahydro-1H-cyclopenta[a]phenanthren-17-yl)pentanoyl)-D-valinate], the MIC in assay [1] is 100 µM and 64 µg/mL; in assay [2], 6.25 µM and 4 µg/mL; in assay [3], 50 µM and 32 µg/mL; in assay [4], 100 µM and 64 µg/mL. Besides, the IC50 with CHO-K1 cells was > 100 µM and > 67 µg/mL.

For `COC(=O)[C@@H](NC(=O)CC[C@@H](C)[C@H]1CCC2C3CC[C@@H]4C[C@@H](NCCCNCCCCNCCCN)CC[C@]4(C)C3CC[C@@]21C)C(C)C` (stereo partly drawn) [Compound S057, methyl ((4R)-4-((3S,5R,10S,13R,17R)-3-((3-((4-((3-aminopropyl)amino)butyl)amino)propyl)amino)-10,13-dimethylhexadecahydro-1H-cyclopenta[a]phenanthren-17-yl)pentanoyl)-L-valinate], the MIC in assay [1] is 3.12 µM and 2 µg/mL; in assay [2], 3.12 µM and 2 µg/mL; in assay [3] it was 3.12 µM and 2 µg/mL; in assay [4], 6.25 µM and 4 µg/mL. In the assay on CHO-K1 cells, the IC50 was 30.2 µM and 20.4 µg/mL.

Broadly, the IC50 is the midpoint of a concentration-inhibition curve.
